Assay results from US4560758A, “Process for preparing pyrrolo[1,2-a]imidazoles and imidazo[1,2-a]pyridines” (Pennwalt Corporation, priority 1984, dated 1985).
Where “and” joins values, the source holds several entries; their conditions need not be identical. Equal entries are not always repeated. Structures can show the parent of a compound that is named as a salt.

Columns and labels:
[1] = test system: carrageenan-induced paw edemas; test: Anti-inflammatory assay, carrageenan-induced paw edema; type: in vivo, Male, Sprague-Dawley rats
Experimental: The anti-inflammatory properties of various compounds of this invention were determined by carrageenan-induced paw edemas of test rats. Male, Sprague-Dawley rats (Blue Spruce Farm) were ordered at 125-140 g, housed for one week, and allowed food and water ad libitum. At the time of the experiments, only rats weighing 160-200 g were used.
All compounds were dissolved or suspended in a 0.5% water solution of Methocel and orally administered to groups of six rats each. Control rats received Methocel only. Two hours later (unless otherwise stated), paw edema was induced by subcutaneous injection into the plantar surface of the right hind paw of 0.1 ml of a 1.0% homogenized suspension of carrageenan.
Immediately, the volume of the paw was measured by immersing it in mercury to above the lateral mateolus. The mercury in a glass cylinder 25 mm in diameter and 60 mm deep was connected at the bottom on the cylinder by a column of water to a Statham transducer (model P23BB), range 0-5 cm of mercury pressure. The volume was recorded electronically on a Beckman recorder, R511. Three hours later, the inflamed paw volume was measured again, and the change in volume was recorded for each group. The percent inhibition of edema was calculated using the control group paw volume as 100% edema, i.e., as (the change in edema in the control group less the change in edema in the test group) times 100 divided by the change in edema in the control group.

[2] = test system: antibody secreting cells in the spleen; test: Kennedy Plaque Assay (humoral immune system depressed by 6-mercaptopurine; number of plaques); type: in vivo; conditions: ip; 60 mg/Kg of 6 MP plus 6.25 mg/Kg (i.p.) of compound; read-out: Percent Restoration (+) or Suppression (-)
Experimental: In this assay, in which the in vitro model used was the Kennedy modification of the Jerne (or plaque) technique (J. C. Kennedy et al, Immunol., 20, p. 253 (1971)), the animal's humoral immune system is depressed artificially by the known immunosuppressant drug, 6-mercaptopurine (6-MP), and then the ability of a drug to either suppress it further or restore it towards normal is evaluated. The change in the number of plaques, which is a direct correlate of the change in the number of antibody secreting cells in the spleen, is used to measure this effect. For example, the compound of Example 11 results in greater than 100% restoration of the number of plaques and thus causes an immunoenhancement of the humoral system. In contrast, the compound of Example 28 results in about 24% further suppression of the number of plaques and thus behaves as an immunosuppressant.
of 6 MP plus 6.25 mg/Kg (i.p.)
^1 without 6MP treatment
^2 percent change from control (i.e., without 6MP)

[3] = test system: mouse hepatitis virus; test: Antiviral assay - hepatitis in mice; type: in vivo; conditions: once daily for 3 days; for Mean Liver Score: day 4, 0 (normal) to 4 (extreme discoloration); for Percent Survival: day 21
Experimental: Female mice weighing approximately 21-24 grams were inoculated with 0.1 ml of a mouse liver suspension containing mouse hepatitis virus, which liver suspension is at a dilution of 10^-5.5. Starting twenty-four hours post-virus inoculation, the animals were intraperitoneally ("i.p.") or orally administered the test compound(s) once daily for 3 days. On day 4, one third to one half of each group of mice were sacrificed and their liver removed for examination. Each liver was scored and assigned a number from 0 (normal liver) to 4 (extreme discoloration). The mean liver score per group was computed. The number of animals surviving until termination of the study (day 21) was also recorded. Anti-hepatitis activity is evidenced by increased survivor numbers and improved liver scores.

Structure (SMILES)	Percent Inhibition of carrageenan induced edema ([1]; 100 mg/Kg p.o., dosed two hours before carrageenan, hydrochloride)	change in vivo at 6.25 mg/kg [2] [%]	Mean Liver Score ([3]; 6.25 mg/Kg i.p., control 2.6)	Percent Survival ([3]; 6.25 mg/Kg i.p., control 5%) [%]	Mean Liver Score ([3]; 12.5 mg/Kg i.p., control 2.6 (Examples 11, 16, 23), 3.4 (25, 26))	Percent Survival ([3]; 12.5 mg/Kg i.p., control 5% (Examples 11, 16, 23), 6% (25, 26)) [%]	Mean Liver Score ([3]; 25 mg/Kg i.p., control 2.6 (Examples 11, 23), 3.4 (25, 26))	Percent Survival ([3]; 25 mg/Kg i.p., control 5% (Examples 11, 23), 6% (25, 26)) [%]	Percent Inhibition of carrageenan induced edema ([1]; 50 mg/Kg p.o., 20 hrs. predosed) [%]	Percent Inhibition of carrageenan induced edema ([1]; 50 mg/Kg p.o., dosed two hours before carrageenan) [%]
Clc1cccc(Cl)c1SC1CCCN2CC(c3ccccc3)N=C12 (centres unmarked) [Example 20, 2,3,5,6,7,8-Hexahydro-2-phenyl-8-(2,6-dichlorophenylthio)imidazo[1,2-a]pyridine hydrochloride]	33.3% and 39.6%	-49								
COC1(OC)CCCN2CC(c3ccccc3)N=C21 (centres unmarked) [Example 23, 2,3,5,6,7,8-Hexahydro-2-phenyl-8,8-dimethoxyimidazo [1,2-a]pyridine hydrochloride]		64	1.7	40	1.0	70	1.3	50	32.1	-3.2
